Laboratory results taken from patent US20250368638A1, “BICYCLIC INHIBITORS OF NICOTINAMIDE […], COMPOSITIONS AND USES THEREOF” (President and Fellows of Harvard College, priority 2021, published 2025).
Like-named read-outs stand apart in the source and are kept apart here.

Legend:
[1] = system: K562 (ATCC) cells; experiment: Cellular potency: 1-MNA levels in K562 cells after compound incubation; type: cell-based; settings: Homo sapiens, 24 h incubation
Experimental: Cellular potency was measured in K562 (ATCC) cells via measuring (1-methyl nicotinamide) 1-MNA levels after compound incubation at varying concentrations overnight. Cells were plated at 1 million per well and were incubated for 24 h with compounds at indicated concentrations. Cells were collected by pipetting and extracted with 200 ul acetonitrile containing internal deuterated standard 10 ng/ml d4-1-MNA. Samples were analyzed on an Agilent 64-60 Triple Quad LC/MS with Agilent 1290 Infinity HPLC using a Restek Allure 5 um PPFP column 150 mm×2.1. The mobile phase A was 2.5 mM ammonium formate in water, and mobile phase B was methanol with 0.1% formic acid, delivered at 0.25 mL/min. The capillary voltage was set to 2400V and the nozzle at 300V. The drying gas temperature was 240° C., the drying gas flow rate was 4 L/min, and the nebulizer pressure was 40 psi. The mass spectrometer was run in multiple reaction monitoring mode. Mass transitions were m/z 137.1 à 94.1 for 1-MNA and m/z 141.1 à 98.1 for d4-MNA.

[2] = Mouse PK studies of 11 (plasma); type: in vivo, Female C57B16/N mice; settings: for T1/2: formulation a (0.2% Tween 80, 10% PEG300); for MRT inf: read-out: MRTInf—obs
Description: Doses were freshly prepared on the day of dosing. Vehicle compositions of each dose are listed below. […] Adjust pH with 1 N hydrochloric acid to obtain a clear solution or (b) 0.2% Tween 80/20% PEG-300 in water. Adjust pH with 1 N hydrochloric acid to obtain a clear solution
Then the samples were vortexed for 30 s.

[3] = system: Ion Channels, GPCR, Transporter, Kinases, Enzyme and Nuclear Hormone Receptor; experiment: Off-target safety panel screening; settings: at 10 μM
Experimental: An off-target safety panel screening for 11 was conducted. The class of target teste included Ion Channels, GPCR, Transporter, Kinases, Enzyme and Nuclear Hormone Receptor.

[4] = system: Salmonella typhimurium (TA98, TA1535, TA1537) and Escherichia coli WP2uvrA (pKM101); experiment: Mini-Ames test; type: cell-based
Experimental: 1. The study evaluated the mutagenic potential of the test article, (or its metabolites) by measuring its ability to induce reverse mutations at selected loci of bacteria Salmonella typhimurium (TA98, TA1535, TA1537) and Escherichia coli WP2uvrA (pKM101) in both the presence and absence of microsomal enzymes.
2. […] Top agar containing 0.6% (w/v) agar and 0.5% (w/v) sodium chloride were supplemented with 0.5 mM D-biotin and 0.5 mM L-histidine for Salmonella typhimurium strains used or 0.5 mM D-biotin and 0.5 mM L-tryptophan for Escherichia coli WP2uvrA (pKM101) used.
3. In the Mini-Ames test, 4 strains were selected for testing: Salmonella typhimurium (TA98, TA1535.TA1537) and Escherichia coli WP2uvrA (pKM101). The test strains were prepared from frozen working stocks. 10 μL frozen working stock adding in 5 mL nutrient broth were incubated with 220 rpm shaking at 37±2° C. for 10 hours until an optical density (at 650 nm) of 0.6-0.8 were reached. The overnight culture were used for the mutagenicity test.
4. The test article was supplied as the powder and maintained at −20° C. until use. Stock solutions were prepared at 50 mg/mL in DMSO (Table 11A). […]
7. […] If the precipitation dose interfere with the scoring (count the number of the revertants), the lowest precipitating dose should be used as the top dose scored. […]
Background lawns are measured microscopically using a stereoscope. […]

[5] = female, C57B16/N, mouse, plasma, iv, 1 mg/kg, 1 mg/kg IV
[6] = female, C57B16/N, mouse, plasma, po, 10 mg/kg, 10 mg/kg PO, formulation a
[7] = female, C57B16/N, mouse, plasma, po, 50 mg/kg, 50 mg/kg PO, formulation a
[8] = female, C57B16/N, mouse, plasma, po, 50 mg/kg, 50 mg/kg PO, formulation b
[9] = female, C57B16/N, mouse, plasma, po, title: single 100 mg/kg dosage, 50 mg/kg^b, formulation b
[10] = female, C57B16/N, mouse, plasma, 1 mg/kg IV

With `C[C@@H]1Cc2cc(C(N)=O)cnc2N1` [Compound 11, (2R)-2-methyl-2,3-dihydro-1H-pyrrolo[2,3-b]pyridine-5-carboxamide] the IC50 [1] was 38 nM, the AUClast/D ([2]; 1 mg/kg IV) was 464 kg·ng·h/mL/mg and the “AUC—%Extrap—obs” value ([2]; 1 mg/kg IV) was 0.574%. For the same compound, the Cl_obs ([2]; 1 mg/kg IV) was 36.1 mL/min/kg, the AUClast/D ([2]; 10 mg/kg PO, formulation a) was 58.2 kg·ng·h/mL/mg and the “AUC—%Extrap—obs” value ([2]; 10 mg/kg PO, formulation a) was 1.90%. It also gave a F_last ([2]; 10 mg/kg PO, formulation a) of 12.7%, a T1/2 ([2]; 10 mg/kg PO) of 1.309 h and an AUClast/D ([2]; 50 mg/kg PO, formulation a) of 1020 kg·ng·h/mL/mg. For the same compound, the “AUC—%Extrap—obs” value ([2]; 50 mg/kg PO, formulation a) was 0.258%, the Cmax ([2]; 50 mg/kg PO, formulation a) was 22500 ng/mL and the T1/2 ([2]; 50 mg/kg PO) was 2.89 h. For the same compound, the AUClast/D ([2]; 50 mg/kg PO, formulation b) was 865 kg·ng·h/mL/mg, the “AUC—%Extrap—obs” value ([2]; 50 mg/kg PO, formulation b) was 7.8% and the AUC(0-inf) [2, 5] was 467 ng·h/mL. It also gave an AUC(0-t) [2, 5] of 464 ng·h/mL, an MRT inf [2, 5] of 0.427 h and an AUC(0-inf) [2, 6] of 593 ng·h/mL. For the same compound, the AUC(0-t) [2, 6] was 582 ng·h/mL, the MRT inf [2, 6] was 2.21 h and the AUC(0-inf) [2, 7] was 51300 ng·h/mL. For the same compound, the AUC(0-t) [2, 7] was 51100 ng·h/mL, the MRT inf [2, 7] was 2.5 h and the AUC(0-inf) [2, 8] was 46700 ng·h/mL. It also gave an AUC(0-t) [2, 8] of 43200 ng·h/mL, an MRT inf [2, 8] of 3.97 h and an AUC(0-t) [2, 9] of 116000 ng·h/mL. For the same compound, the Tmax [2, 9] was 0.25 h, the half-life [2, 9] was 3.43 h and the Cmax ([2]; female, C57B16/N, mouse, plasma, po, title: single 100 mg/kg dosage, 50 mg/kg^b, formulation b, read-out: Cmax) was 43200 ng/mL. It also gave a C0 [2, 10] of 2620 ng/mL, a half-life [2, 10] of 0.148 h and a Tmax ([2]; female, C57B16/N, mouse, plasma, 10 mg/kg PO, formulation a) of 0.5 h. The Cmax ([2]; female, C57B16/N, mouse, plasma, 10 mg/kg PO, formulation a, read-out: Cmax) was 412 ng/mL, the Tmax ([2]; female, C57B16/N, mouse, plasma, 50 mg/kg PO, formulation a) was 0.25 h and the half-life ([2]; female, C57B16/N, mouse, plasma, 50 mg/kg PO, formulation b (0.2% Tween 80, 20% PEG300)) was 4.1 h. For the same compound, the Cmax ([2]; female, C57B16/N, mouse, plasma, 50 mg/kg PO, formulation b, read-out: Cmax) was 19000 ng/mL, the Off-target activity [3] was “did not show significant off-target activity” and the “F value (Mini Ames)” value ([4]; all tested concentrations, every strain, with and without an S9 Fraction) was “less than 2”. For the same compound, the “Mutagenicity (Mini-Ames)” value ([4]; various bacteria strains, with and without S9) was “not mutagenic”.
